These results are taken from patent US9493446B2, “Orexin receptor antagonists which are [ortho bi-(hetero-)aryl]-[2-(meta bi-(hetero-)aryl)-pyrrolidin-1-yl]-methanone derivatives” (Actelion Pharmaceuticals Ltd, priority 2012, dated 2016).

In experiment [1] the target is human orexin-2 receptor (Homo sapiens (Human), UniProt O43614). In words: Intracellular calcium measurement (FLIPR), CHO cells expressing human orexin-2 receptor, 3 nM orexin-A. It counts as cell-based. As to conditions: read-out: IC50 OX2. The gist of the method: (§1)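 CHO transfectants were dye-loaded (fluo-4 AM, probenecid) and exposed to antagonist for 120 min ahead of agonist.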
For orientation: Calcium assays in cells follow changes in intracellular calcium, usually with a dye or a luminescent sensor.

The target in experiment [2] is orexin-1 (Homo sapiens (Human), UniProt O43613). In words: Intracellular calcium measurement (FLIPR), CHO cells expressing human orexin-1 receptor, 3 nM orexin-A. Conditions: read-out: IC50 OX1. It is filed as cell-based. An outline of the steps: as §1
Where [3] appears, read: CHO cells expressing human orexin-2 receptor, FLIPR, 3 nM orexin-A, geometric mean if determined several times.
[4] abbreviates: CHO cells expressing human orexin-1 receptor, FLIPR, 3 nM orexin-A, geometric mean if determined several times.

Where two headings read alike, the source gives them in different places.

Chain of human orexin-2 receptor (O43614 whole entry): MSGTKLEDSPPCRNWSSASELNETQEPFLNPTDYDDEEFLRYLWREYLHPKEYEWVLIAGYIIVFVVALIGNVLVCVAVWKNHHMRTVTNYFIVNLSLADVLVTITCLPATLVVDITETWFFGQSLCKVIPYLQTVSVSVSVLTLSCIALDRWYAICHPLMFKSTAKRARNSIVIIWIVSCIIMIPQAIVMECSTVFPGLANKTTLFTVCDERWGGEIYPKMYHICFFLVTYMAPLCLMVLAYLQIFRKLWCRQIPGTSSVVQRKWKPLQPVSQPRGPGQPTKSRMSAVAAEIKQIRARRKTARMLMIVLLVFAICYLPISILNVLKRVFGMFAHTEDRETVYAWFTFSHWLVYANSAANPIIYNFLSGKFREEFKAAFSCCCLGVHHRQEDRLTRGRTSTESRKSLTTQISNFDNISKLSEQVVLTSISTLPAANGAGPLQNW
Chain of orexin-1 (O43613 whole entry): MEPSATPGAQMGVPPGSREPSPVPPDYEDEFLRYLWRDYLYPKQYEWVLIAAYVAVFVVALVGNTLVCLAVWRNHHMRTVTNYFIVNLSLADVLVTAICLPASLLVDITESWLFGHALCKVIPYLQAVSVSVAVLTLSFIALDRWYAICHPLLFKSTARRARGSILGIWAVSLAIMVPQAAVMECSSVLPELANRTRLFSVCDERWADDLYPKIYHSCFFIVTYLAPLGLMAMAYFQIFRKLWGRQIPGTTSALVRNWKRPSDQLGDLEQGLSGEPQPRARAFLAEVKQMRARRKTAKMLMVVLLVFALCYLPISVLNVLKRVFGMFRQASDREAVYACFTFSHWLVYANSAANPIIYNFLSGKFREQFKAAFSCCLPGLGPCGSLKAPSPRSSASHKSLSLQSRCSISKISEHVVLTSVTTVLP

On to `COc1cc(C(=O)N2CCC[C@H]2c2cc(-c3ccccc3OC(F)(F)F)on2)c(-n2nccn2)cc1Cl` [compound 437], for which the IC50 – broadly, the concentration that gives 50% inhibition – in experiment [1] (setting [3]) came to 15 nM; in experiment [2], 62 nM.
Take `Cc1ccc(-c2ccccc2)c(C(=O)N2CCC[C@@]2(C)c2nnc(-c3cccc(Cl)c3C)[nH]2)c1` [compound 556]: the IC50 is 857 nM in experiment [1] (setting [3]) and 870 nM in experiment [2] (setting [4]).
`Cc1ccc(-n2nccn2)c(C(=O)N2CCC[C@@]2(C)c2nc(-c3ccccc3)no2)c1` [Example 540, [(S)-2-Methyl-2-(3-phenyl-[1,2,4]oxadiazol-5-yl)-pyrrolidin-1-yl]-(5-methyl-2-[1,2,3]triazol-2-yl-phenyl)-methanone]: the values for the IC50 in experiment [1] (setting [3]) and in experiment [2] (setting [4]) were 581 nM and 211 nM, respectively.
For `Cc1ccc(-n2nccn2)c(C(=O)N2CCC[C@H]2c2nc(-c3cccc(Cl)c3)no2)c1` [compound 18], the IC50 in experiment [1] (setting [3]) worked out at 32 nM; in experiment [2], 91 nM.
With `COc1ccc(C)cc1-c1nc([C@@H]2CCCN2C(=O)c2cc(Cl)ccc2-n2nccn2)no1` [compound 417], the figures for the IC50 in experiment [1] (setting [3]) and in experiment [2] (setting [4]) were 21 nM and 271 nM, respectively.
Take `Cc1ccc(-n2nccn2)c(C(=O)N2CCC[C@H]2c2nc(-c3cccc4c3OCCO4)no2)c1` [compound 38, {(S)-2-[3-(2,3-Dihydro-benzo[1,4]dioxin-5-yl)-[1,2,4]oxadiazol-5-yl]-pyrrolidin-1-yl}-(5-methyl-2-[1,2,3]triazol-2-yl-phenyl)-methanone]: the IC50 in experiment [1] (setting [3]) stood at 12 nM; in experiment [2] (setting [4]) it was 23 nM.
As to `Cc1c(Cl)cccc1-c1noc([C@@H]2CCCN2C(=O)c2cccc(F)c2-c2ccn[nH]2)n1` [compound 117], the IC50 in experiment [1] (setting [3]) stood at 5 nM; in experiment [2] it was 211 nM.
In the same order, the values of `Cc1cc(C(=O)N2CCC[C@H]2c2noc(-c3cccc(Cl)c3C)n2)c(-n2nccn2)cc1C` [compound 321] are 1 nM and 7 nM.
On to `COc1cc(C(=O)N2CCC[C@H]2c2nc(-c3ccccc3OC(F)F)no2)c(-n2nccn2)cc1C` [compound 189, {(S)-2-[3-(2-Difluoromethoxy-phenyl)-[1,2,4]oxadiazol-5-yl]-pyrrolidin-1-yl}-(5-methoxy-4-methyl-2-[1,2,3]triazol-2-yl-phenyl)-methanone], for which the results for the IC50 in experiment [1] (setting [3]) and in experiment [2] (setting [4]) were 5 nM and 47 nM, respectively.
As for `COc1c(F)cccc1-c1noc([C@@H]2CCCN2C(=O)c2cccc(Cl)c2-n2nccn2)n1` [compound 297], the figures for the IC50 in experiment [1] (setting [3]) and in experiment [2] were 478 nM and 690 nM, respectively.
Turning to “{(S)-2-[5-(3-Chloro-2-methyl-phenyl)-[1,2,4]oxadiazol-3-yl]-pyrrolidin-1-yl}-[3-(2-chloro-phenyl)-5-methyl-isoxazol-4-yl]-methanone [Reference compound 8, reference compound]”, the IC50 turned out to be 74 nM in experiment [1] (setting [3]) and 156 nM in experiment [2] (setting [4]).
With `CCOc1ccccc1-c1noc([C@@H]2CCCN2C(=O)c2cc(C)c(C)cc2-n2nccn2)n1` [compound 257, (4,5-Dimethyl-2-[1,2,3]triazol-2-yl-phenyl)-{(S)-2-[3-(2-ethoxy-phenyl)-[1,2,4]oxadiazol-5-yl]-pyrrolidin-1-yl}-methanone], the IC50 in experiment [1] (setting [3]) amounted to 1 nM; in experiment [2] (setting [4]), 4 nM.
The corresponding values for `O=C(c1cccc(Cl)c1-n1nccn1)N1CCC[C@H]1c1nc(-c2ccccc2OC(F)(F)F)no1` [compound 298] are 517 nM and 531 nM.
In the case of `CCCOc1ccccc1-c1noc([C@@H]2CCCN2C(=O)c2cc(C)ccc2-n2nccn2)n1` [compound 45], the IC50 amounted to 125 nM in experiment [1] (setting [3]) and 112 nM in experiment [2] (setting [4]).
With `COc1cc(C(=O)N2CCC[C@H]2c2nc(-c3ccccc3OC(F)(F)F)no2)c(-n2nccn2)cc1F` [compound 174, (4-Fluoro-5-methoxy-2-[1,2,3]triazol-2-yl-phenyl)-{(S)-2-[3-(2-trifluoromethoxy-phenyl)-[1,2,4]oxadiazol-5-yl]-pyrrolidin-1-yl}-methanone], the IC50 is 70 nM in experiment [1] (setting [3]) and 174 nM in experiment [2] (setting [4]).
On to `CCOc1c(F)cccc1-c1nc([C@@H]2CCCN2C(=O)c2cc(OC)c(F)cc2-n2nccn2)no1` [compound 325, {(S)-2-[5-(2-Ethoxy-3-fluoro-phenyl)-[1,2,4]oxadiazol-3-yl]-pyrrolidin-1-yl}-(4-fluoro-5-methoxy-2-[1,2,3]triazol-2-yl-phenyl)-methanone], for which the IC50 in experiment [1] (setting [3]) came to 6 nM; in experiment [2] (setting [4]) it was 151 nM.
As for `COc1cc(C)cc(-c2nc([C@@H]3CCCN3C(=O)c3cc(Cl)ccc3-n3nccn3)no2)c1` [compound 415], the IC50 in experiment [1] was 49 nM; in experiment [2] (setting [4]), 193 nM.
On to `Cc1ccc(-n2nccn2)c(C(=O)N2CCC[C@H]2c2nc(-c3cccnc3OC3CCCC3)no2)c1` [compound 49, {(S)-2-[3-(2-Cyclopentyloxy-pyridin-3-yl)-[1,2,4]oxadiazol-5-yl]-pyrrolidin-1-yl}-(5-methyl-2-[1,2,3]triazol-2-yl-phenyl)-methanone], for which the IC50 was 233 nM in experiment [1] (setting [3]) and 89 nM in experiment [2] (setting [4]).
The corresponding values for `Cc1ccc(-n2nccn2)c(C(=O)N2CCC[C@H]2c2nc(-c3ccnc4[nH]ccc34)no2)c1` [compound 75, (5-Methyl-2-[1,2,3]triazol-2-yl-phenyl)-{(S)-2-[3-(1H-pyrrolo[2,3-b]pyridin-4-yl)-[1,2,4]oxadiazol-5-yl]-pyrrolidin-1-yl}-methanone] are 261 nM and 1570 nM.
For the molecule `CCOc1ncccc1-c1nnc([C@@H]2CCCN2C(=O)c2cc(C)ccc2-n2nccn2)[nH]1` [compound 496, {(S)-2-[5-(2-Ethoxy-pyridin-3-yl)-4H-[1,2,4]triazol-3-yl]-pyrrolidin-1-yl}-(5-methyl-2-[1,2,3]triazol-2-yl-phenyl)-methanone], the IC50 in experiment [1] (setting [3]) worked out at 50 nM; in experiment [2] (setting [4]), 57 nM.
Take `Cc1cc(C(=O)N2CCC[C@H]2c2nc(-c3ccccc3C(F)(F)F)no2)c(-n2nccn2)cc1C` [compound 181, (4,5-Dimethyl-2-[1,2,3]triazol-2-yl-phenyl)-{(S)-2-[3-(2-trifluoromethyl-phenyl)-[1,2,4]oxadiazol-5-yl]-pyrrolidin-1-yl}-methanone]: the IC50 in experiment [1] (setting [3]) was 37 nM; in experiment [2] (setting [4]), 86 nM.
The corresponding values for `CCOc1ncccc1-c1noc([C@@H]2CCCN2C(=O)c2ccc(C)cc2-n2nccn2)n1` [compound 211, {(S)-2-[3-(2-Ethoxy-pyridin-3-yl)-[1,2,4]oxadiazol-5-yl]-pyrrolidin-1-yl}-(4-methyl-2-[1,2,3]triazol-2-yl-phenyl)-methanone] are 37 nM and 81 nM.
In the case of `CCOc1ncccc1-c1noc([C@@H]2CCCN2C(=O)c2cc(C)cc(C)c2-n2nccn2)n1` [compound 209, (3,5-Dimethyl-2-[1,2,3]triazol-2-yl-phenyl)-{(S)-2-[3-(2-ethoxy-pyridin-3-yl)-[1,2,4]oxadiazol-5-yl]-pyrrolidin-1-yl}-methanone], the IC50 came out at 21 nM in experiment [1] (setting [3]) and 56 nM in experiment [2] (setting [4]).
Take `Cc1ccc(-n2nccn2)c(C(=O)N2CCC[C@H]2c2nc(-c3c(C)cccc3F)no2)c1` [compound 76, {(S)-2-[3-(2-Fluoro-6-methyl-phenyl)-[1,2,4]oxadiazol-5-yl]-pyrrolidin-1-yl}-(5-methyl-2-[1,2,3]triazol-2-yl-phenyl)-methanone]: the IC50 in experiment [1] (setting [3]) was 40 nM; in experiment [2] (setting [4]), 901 nM.
On to `O=C(c1cccc(F)c1-c1ccn[nH]1)N1CCC[C@H]1c1nc(-c2ccccc2OC(F)(F)F)no1` [compound 168, [3-Fluoro-2-(2H-pyrazol-3-yl)-phenyl]-{(S)-2-[3-(2-trifluoromethoxy-phenyl)-[1,2,4]oxadiazol-5-yl]-pyrrolidin-1-yl}-methanone], for which the results for the IC50 in experiment [1] (setting [3]) and in experiment [2] (setting [4]) were 10 nM and 27 nM, respectively.
Consider `COc1cc(O)ccc1-c1noc([C@@H]2CCCN2C(=O)c2cc(C)ccc2-n2nccn2)n1` [compound 64, {(S)-2-[3-(4-Hydroxy-2-methoxy-phenyl)-[1,2,4]oxadiazol-5-yl]-pyrrolidin-1-yl}-(5-methyl-2-[1,2,3]triazol-2-yl-phenyl)-methanone], for which the figures for the IC50 in experiment [1] (setting [3]) and in experiment [2] (setting [4]) were 52 nM and 198 nM, respectively.
On to `O=C(c1ccccc1-c1ccccc1)N1CCC[C@H]1c1nc(-c2ccccc2OC(F)(F)F)no1` [compound 135, Biphenyl-2-yl-{(S)-2-[3-(2-trifluoromethoxy-phenyl)-[1,2,4]oxadiazol-5-yl]-pyrrolidin-1-yl}-methanone], for which the results for the IC50 in experiment [1] (setting [3]) and in experiment [2] (setting [4]) were 17 nM and 60 nM, respectively.
Regarding `CCc1ccccc1-c1nnc([C@@H]2CCCN2C(=O)c2cc(C)ccc2-n2nccn2)[nH]1` [compound 512, {(S)-2-[5-(2-Ethyl-phenyl)-4H-[1,2,4]triazol-3-yl]-pyrrolidin-1-yl}-(5-methyl-2-[1,2,3]triazol-2-yl-phenyl)-methanone], the IC50 came out at 80 nM in experiment [1] (setting [3]) and 652 nM in experiment [2] (setting [4]).
`Cc1cc(C(=O)N2CCC[C@H]2c2noc(-c3cccc(F)c3C)n2)c(-n2nccn2)cc1C` [compound 339, (4,5-Dimethyl-2-[1,2,3]triazol-2-yl-phenyl)-{(S)-2-[5-(3-fluoro-2-methyl-phenyl)-[1,2,4]oxadiazol-3-yl]-pyrrolidin-1-yl}-methanone]: the values for the IC50 in experiment [1] (setting [3]) and in experiment [2] (setting [4]) were 2 nM and 15 nM, respectively.
Consider `Cc1cccc(-c2nc([C@@H]3CCCN3C(=O)c3ccc(Cl)cc3-n3nccn3)no2)c1C` [compound 397], for which the IC50 in experiment [1] (setting [3]) was 5 nM; in experiment [2], 85 nM.
With `CCc1ccccc1-c1nc([C@@H]2CCCN2C(=O)c2cc(C)ccc2-n2nccn2)no1` [compound 389, {(S)-2-[5-(2-Ethyl-phenyl)-[1,2,4]oxadiazol-3-yl]-pyrrolidin-1-yl}-(5-methyl-2-[1,2,3]triazol-2-yl-phenyl)-methanone], the IC50 in experiment [1] (setting [3]) stood at 15 nM; in experiment [2] (setting [4]) it was 35 nM.
